Consider one molecule from paper PMC6534110, “Enzyme characterization and biological activities of a resuscitation promoting factor from an oil degrading bacterium Rhodococcus erythropolis KB1” (PeerJ, 2019).

This assay deals with T1, Rpf-1 (Rhodococcus erythropolis, UniProt C0ZMT9).
T1 construct: N-terminal Trx-His-S tag of pET-32a(+) kept (37 kDa on SDS-PAGE); forward primer encodes MSGRHR, reverse primer encodes C-terminal AKTFLK; conserved Cys50, Glu51, Cys114
In words: fluorogenic hydrolysis, 4-methylumbelliferone release ([…] nm). It is filed as biochemical. Conditions: 22 μM printed, McIlvaine phosphate-citrate buffer pH 5.2, 37 °C, 30 min.

T1 sequence (C0ZMT9 entry or part of it): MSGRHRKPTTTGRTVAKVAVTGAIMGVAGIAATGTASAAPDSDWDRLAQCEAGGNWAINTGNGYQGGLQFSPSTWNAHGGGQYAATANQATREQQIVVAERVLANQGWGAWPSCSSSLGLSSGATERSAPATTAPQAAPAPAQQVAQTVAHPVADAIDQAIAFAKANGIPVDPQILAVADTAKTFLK

Take `CC(=O)N[C@H]1[C@H](Oc2ccc3c(C)cc(=O)oc3c2)O[C@H](CO)[C@@H](O[C@@H]2O[C@H](CO)[C@@H](O[C@@H]3O[C@H](CO)[C@@H](O)[C@H](O)[C@H]3NC(C)=O)[C@H](O)[C@H]2NC(C)=O)[C@@H]1O` [4-methylumbelliferyl-β-D-N,N′,N″-triacetylchitotrioside]: the “fluorogenic hydrolysis, 4-methylumbelliferone release (360/455 nm)” value is given as “The recombinant Rpf-1 showed muralytic activity when determined with the artificial lysozyme substrate”.
